This note sets out measurements from patent US20260055065A1, “PYRIDAZINONE COMPOUNDS WHICH MODULATE MUTANT PROTEINS FOR TREATING RESPIRATORY DISEASES” (The Hospital for Sick Children, priority 2022, published 2026).

T1 sequence (P13569 with tags, fused parts or gaps DEL508-508): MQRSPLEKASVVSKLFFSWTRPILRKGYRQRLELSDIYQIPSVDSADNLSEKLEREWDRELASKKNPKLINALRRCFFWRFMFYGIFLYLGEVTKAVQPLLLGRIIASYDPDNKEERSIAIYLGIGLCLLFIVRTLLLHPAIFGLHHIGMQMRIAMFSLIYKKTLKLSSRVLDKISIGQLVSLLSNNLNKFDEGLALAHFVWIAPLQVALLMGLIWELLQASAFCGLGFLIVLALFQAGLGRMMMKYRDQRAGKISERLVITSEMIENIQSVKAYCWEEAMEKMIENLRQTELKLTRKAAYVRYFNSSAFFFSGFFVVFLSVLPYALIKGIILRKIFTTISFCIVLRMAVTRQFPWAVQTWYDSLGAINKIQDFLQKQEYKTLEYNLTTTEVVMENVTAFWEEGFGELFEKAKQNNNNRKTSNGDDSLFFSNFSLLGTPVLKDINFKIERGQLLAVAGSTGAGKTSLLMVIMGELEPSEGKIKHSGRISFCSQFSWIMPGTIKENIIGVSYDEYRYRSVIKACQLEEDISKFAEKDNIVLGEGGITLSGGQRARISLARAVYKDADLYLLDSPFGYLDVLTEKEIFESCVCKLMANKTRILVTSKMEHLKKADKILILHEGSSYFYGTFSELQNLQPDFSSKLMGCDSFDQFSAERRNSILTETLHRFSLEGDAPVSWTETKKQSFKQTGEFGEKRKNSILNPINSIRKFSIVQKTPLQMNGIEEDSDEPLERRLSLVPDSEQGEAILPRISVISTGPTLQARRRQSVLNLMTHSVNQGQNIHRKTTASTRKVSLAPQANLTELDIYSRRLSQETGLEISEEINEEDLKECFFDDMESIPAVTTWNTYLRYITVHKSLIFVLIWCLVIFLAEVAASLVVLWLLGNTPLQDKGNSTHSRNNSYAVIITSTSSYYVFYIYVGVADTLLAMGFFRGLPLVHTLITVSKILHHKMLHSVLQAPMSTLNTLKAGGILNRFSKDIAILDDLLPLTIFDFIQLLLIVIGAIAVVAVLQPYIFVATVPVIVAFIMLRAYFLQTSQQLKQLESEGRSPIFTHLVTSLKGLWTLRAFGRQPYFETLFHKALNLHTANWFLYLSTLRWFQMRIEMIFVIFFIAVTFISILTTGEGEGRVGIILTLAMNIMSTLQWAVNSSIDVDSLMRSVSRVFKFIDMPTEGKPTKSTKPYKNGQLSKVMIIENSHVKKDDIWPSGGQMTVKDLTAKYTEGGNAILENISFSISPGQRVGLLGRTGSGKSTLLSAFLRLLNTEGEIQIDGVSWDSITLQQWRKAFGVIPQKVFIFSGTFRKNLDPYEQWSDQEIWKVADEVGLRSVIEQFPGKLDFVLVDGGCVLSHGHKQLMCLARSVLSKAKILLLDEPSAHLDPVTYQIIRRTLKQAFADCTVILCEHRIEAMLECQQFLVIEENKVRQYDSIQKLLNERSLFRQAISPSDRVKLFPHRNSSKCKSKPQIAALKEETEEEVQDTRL

The first experiment has as its target T1, deltaF508 CFTR (Homo sapiens, UniProt P13569, DEL508-508).
T1 construct: host or cells: CFBE (cystic fibrosis bronchial-derived cell line)
Kind of experiment: CFBE potentiator assay (FLIPR membrane potential, temperature-rescued). The experiment is classed as cell-based. To be noted: CFBE cells, 3 micromolar forskolin; bin 1 nM-100 nM; read-out: CFBE potentiator EC50 range. The procedure:
Cell culture: HEK293 cells stably expressing human deltaF508 CFTR were cultured in DMEM/F12 medium containing 10% fetal bovine serum (FBS) and 600 micrograms/mL geneticin. For functional CFTR assays, cryo-preserved cells were quickly thawed in a 37° C. water bath, diluted with warm DMEM/F12 medium containing 10% FBS, spun down at 300×g for 5 mins and resuspended in the same medium at a density of 300,000 cells/mL. A cystic fibrosis bronchial-derived cell line complemented with a 4.7 Kb deltaF508 CFTR cDNA (“CFBE”) was obtained from Dr. Dieter Gruenert under a license from UCSF. These cells were cultured in MEM with Earle's salt (Invitrogen)supplemented with 10% fetal bovine serum (Invitrogen) and 300 micrograms/mL hygromycin (Millipore). CFBE cells were grown on flasks coated with a fibronectin solution containing LHC basal medium (Invitrogen), 0.001% bovine serum albumin (Sigma), 1% v/v Vitrogen 100 (BD Bioscience) and 10 micrograms/mL human fibronectin (Life Technologies). All cells were grown at 37° C. and 5% CO2 unless specified for an assay.
CFBE potentiator assay: CFBE cells were dissociated for 10 mins at 37° C. with Hank's balanced salt solution containing 0.6 mM EDTA and 10% of a 0.25% Trypsin/EDTA solution (all from Life Technologies). An equal amount of CFBE cell growth medium (see Cell culture above) was then added to the flasks and cells were spun at 500×g for 10 mins. Cells were re-suspended in cell medium at a density of 150,000 cells/mL and plated in 384-well black, poly-D-Lysine-coated plates (7,500 cells/well). Cells were then grown at 37° C., 5% CO2 for a total of 6-8 days to allow differentiation. Cell medium was changed every 2-3 days. The day before each experiment, culture medium was removed, fresh culture medium was added and cells were placed at 30° C., 5% CO2 for 18-24 hrs to allow temperature rescue of delF508 CFTR. Potentiation activity was measured as described above for HEK cells except cells were stained for exactly 60 mins, compounds (or DMSO for negative control) were mixed with assay buffer containing 3 micromolar forskolin, and the positive control wells had assay buffer containing 3 micromolar forskolin and 9 micromolar VX-770 (Selleckchem).
Data analysis: CFTR activity was defined as maximum fluorescence signal after addition minus baseline fluorescence. All data were normalized to each plate's positive and negative controls and expressed as percent responses. Concentration response curves were analyzed by fitting the data to a 4-parameter logistic equation in Microcal's Origin or IDBS' Activity Base software.
In the case of `Nc1c(N2CCCCC2)c(-c2ccccc2)nn(-c2ccc(Cl)c(O)c2)c1=O`, the EC50 fell in the range of 0.001 to 0.1 µM. Same read-out and setting: with `Nc1c(N2CCCC2)c(-c2ccc(F)cc2)nn(-c2ccc(Cl)c(O)c2)c1=O` the figure was 0.001 to 0.1 µM; with `Nc1c(N2CCCC2)c(-c2ccc(F)cc2)nn(-c2ccc(F)c(O)c2)c1=O`, 0.001 to 0.1 µM; with `CC(C)c1ccc(-n2nc(-c3ccc(F)cc3)c(N3CCCC3)c(N)c2=O)cc1O`, 0.001 to 0.1 µM. Still for that read-out and setting: next, `Cc1ccc(-n2nc(-c3ccc(F)cc3)c(N3CCCC3)c(N)c2=O)cc1O`: 0.001 to 0.1 µM; `Nc1c(N2CCCCC2)c(-c2ccccc2)nn(-c2ccc(C(F)(F)F)c(O)c2)c1=O`: 0.001 to 0.1 µM; `Nc1c(N2CCCCC2)c(-c2ccc(F)cc2)nn(-c2ccc(C(F)(F)F)c(O)c2)c1=O`: 0.001 to 0.1 µM.

For the compound `Nc1c(N2CCCCC2)c(-c2ccc(F)cc2)nn(-c2cccc(O)c2)c1=O`, the EC50 lay in the range of 0.001 to 0.1 µM. On the same count and under the same terms, with `Nc1c(N2CCCC2)c(-c2ccccc2)nn(-c2ccc(Cl)c(O)c2)c1=O` the figure was 0.001 to 0.1 µM; with `CC(C)c1ccc(-n2nc(-c3ccc(F)cc3)c(N3CCCCC3)c(N)c2=O)cc1O`, 0.001 to 0.1 µM. Still for that read-out and setting: next, `CC(C)(C)c1ccc(-n2nc(-c3ccccc3)c(N3CCCC3)c(N)c2=O)cc1O`: 0.001 to 0.1 µM; `Nc1c(N2CCCCC2)c(-c2ccc(F)cc2)nn(-c2ccc(F)c(O)c2)c1=O`: 0.001 to 0.1 µM. In the case of `Cc1ccc(-n2nc(-c3ccccc3)c(N3CCCCC3)c(N)c2=O)cc1O`, the EC50 lay in the range of 0.001 to 0.1 µM.

In the case of `Cc1ccc(-n2nc(-c3ccc(F)cc3)c(N3CCCCC3)c(N)c2=O)cc1O`, the EC50 fell in the range of 0.001 to 0.1 µM. Still for that read-out and setting: with `CC(C)c1ccc(-n2nc(-c3ccccc3)c(N3CCCCC3)c(N)c2=O)cc1O` the figure was 0.001 to 0.1 µM; with `Nc1c(N2CCCC2)c(-c2ccccc2)nn(-c2cccc(O)c2)c1=O`, 0.001 to 0.1 µM; with `CC(C)(C)c1ccc(-n2nc(-c3ccccc3)c(N3CCCCC3)c(N)c2=O)cc1O`, 0.001 to 0.1 µM.

Take `Nc1c(N2CCCC2)c(-c2ccc(F)cc2)nn(-c2ccc(C(F)(F)F)c(O)c2)c1=O`: the EC50 lay within 0.001 to 0.1 µM. On the same count and under the same terms, with `Nc1c(N2CCCCC2)c(-c2ccnc(C(F)(F)F)c2)nn(-c2cccc(O)c2)c1=O` the figure was 0.001 to 0.1 µM; with `CC(C)(C)c1ccc(-n2nc(-c3ccc(F)cc3)c(N3CCCC3)c(N)c2=O)cc1O`, 0.001 to 0.1 µM; with `CC(C)c1ccc(-n2nc(-c3ccccc3)c(N3CCCC3)c(N)c2=O)cc1O`, 0.001 to 0.1 µM. Still for that read-out and setting: next, `Nc1c(N2CCCCC2)c(-c2cccnc2)nn(-c2cccc(O)c2)c1=O`: 0.001 to 0.1 µM; `Nc1c(-n2cccn2)c(-c2ccccc2)nn(-c2cccc(O)c2)c1=O`: 0.001 to 0.1 µM. Same read-out and setting: next, `Nc1c(N2CCC2)c(-c2ccccc2)nn(-c2cccc(O)c2)c1=O`: 0.001 to 0.1 µM; `Nc1c(N2CCCCC2)c(-c2ccccc2)nn(-c2cccc(O)c2)c1=O`: 0.001 to 0.1 µM.

Consider `Nc1c(N2CCCCC2)c(-c2ccncc2)nn(-c2cccc(O)c2)c1=O`, for which the EC50 fell in the range of 0.001 to 0.1 µM. On the same count and under the same terms, with `CC(C)(C)c1ccc(-n2nc(-c3ccc(F)cc3)c(N3CCCCC3)c(N)c2=O)cc1O` [drawing 37] the figure was 0.001 to 0.1 µM; with `Cc1ccccc1-c1nn(-c2cccc(O)c2)c(=O)c(N)c1N1CCCCC1` [drawing 38], 0.001 to 0.1 µM. Still for that read-out and setting: with `CN(C)c1c(-c2ccccc2)nn(-c2cccc(O)c2)c(=O)c1N` [drawing 45] the figure was 0.001 to 0.1 µM.

Still in this experiment, the particulars now being: CFBE cells, 3 micromolar forskolin; bin 100 nM-1 μM; read-out: CFBE potentiator EC50 range.
As for `Nc1c(N2CCCCC2)c(-c2ccccn2)nn(-c2cccc(O)c2)c1=O`, the EC50 lay within 0.1 to 1 µM. The same measure, in the same setting: with `Nc1c(N2CCOCC2)c(-c2ccccc2)nn(-c2cccc(O)c2)c1=O` the figure was 0.1 to 1 µM; with `Nc1c(N2CCCCC2)c(-c2ccccc2)nn(CC(O)C(F)(F)F)c1=O` (centres unmarked), 0.1 to 1 µM; with `CC(CO)n1nc(-c2ccccc2)c(N2CCCCC2)c(N)c1=O` (centres unmarked), 0.1 to 1 µM.

Turning to `Nc1c(N2CCCCC2)c(-c2ccccc2)nn(Cc2ccccc2)c1=O`, the EC50 lay in the range of 0.1 to 1 µM.

Still in this experiment, the particulars now being: CFBE cells, 3 micromolar forskolin; bin 1 μM-10 μM; read-out: CFBE potentiator EC50 range.
For `Nc1c(N2CCCCC2)c(-c2ccccc2)nn(CCCO)c1=O`, the EC50 fell in the range of 1 to 10 µM. Still for that read-out and setting: with `N#CCCn1nc(-c2ccccc2)c(N2CCCCC2)c(N)c1=O` the figure was 1 to 10 µM.

Still in this experiment, the particulars now being: CFBE cells, 3 micromolar forskolin; read-out: CFBE potentiator assay pot. pEC50 (converted).
For the compound `Cc1ccccc1-c1nn(-c2cccc(O)c2)c(=O)c(N)c1N1CCCCC1` [Compound 15, 4-amino-2-(3-hydroxyphenyl)-5-(piperidin-1-yl)-6-(o-tolyl)pyridazin-3(2H)-one], the EC50 is 0.0158 µM. Same read-out and setting: next, `CN(C)c1c(-c2ccccc2)nn(-c2cccc(O)c2)c(=O)c1N` [Compound 21, 4-amino-5-(dimethylamino)-2-(3-hydroxyphenyl)-6-phenylpyridazin-3(2H)-one]: 0.02 µM.
